Measurements taken from patent publication US6649637B2, “Inhibition of intracellular replication by pyridinylimidazoles” (priority 2001, dated 2003).
Where two headings read alike, the source gives them in different places.

What was measured:
[1] = tested on: T. gondii RH strain tachyzoites; assay: [3H]methyluracil incorporation: intracellular tachyzoite replication in human fibroblasts, RH strain; type: cell-based, Toxoplasma gondii; conditions: drug added 6 hours after infection; for inhibition of intracellular RH strain tachyzoite replication: dose-dependent
[2] = tested on: T. gondii Me49 strain tachyzoites; assay: [3H]methyluracil incorporation: intracellular tachyzoite replication in human fibroblasts, Me49 strain; type: cell-based, Toxoplasma gondii; conditions: for Me49 strain more susceptible to growth inhibition than RH strain: ratio of IC50 RH / Me49
mutant tachyzoite SBRRH2 = assay: Replication of SB203580-resistant RH clone SBRRH2 in fibroblasts; type: cell-based, Toxoplasma gondii
[3] = tested on: T. gondii acyl-CoA:cholesterol acyltransferase; assay: Cholesterol esterification ([14C]oleate pulse labelling) in extracellular tachyzoites; type: biochemical, Toxoplasma gondii; conditions: 10 μM, extracellular RH tachyzoites, 7 hours
Protocol: (§1) The mean of triplicate replications with standard error bars is shown. “Control” is no drug treatment.
One experiment representative of 4 is shown for each measure.
Cholesterol esterification activity was assessed by pulse-labeling of cells using radiolabeled fatty acid as substrate. […] At the time of drug addition, acyl-CoA:cholesterol acyltransferase activity was stimulated with 25-hydroxycholesterol plus cholesterol and cells were pulse-labeled for 2 hours with 20 μl sodium [^14C]oleate-albumin complex. Lipids were extracted with hexane/isopropanol (3:2 ratio) and the organic solvents evaporated under a nitrogen stream. Lipids were resuspended in chloroform, spotted on TLC silica gel G plates (Fisher, Fairlawn, N.J.) and separated in hexane/ethyl ether/glacial acetic acid (80:20:1 ratio). Cholesterol ester content was determined by liquid scintillation and normalized as pmol ^14C/mg protein. […] After 3 days, cells were fixed in paraformaldehyde, rinsed in PBS, stained with filipin (Sigma) and examined by fluorescence microscopy using an excitation filter of 350-410 nm. Cholesterol content was determined in densitometric units measured with an Alpha Imager 2000 (Alpha Innotech Corporation, San Leandro, Calif.).

RH strain tachyzoites = assay: Tachyzoite cholesterol content (densitometric units); type: cell-based, Toxoplasma gondii; conditions: 10 μM
Protocol: as §1
Cholesterol esterification activity was assessed by pulse-labeling of cells using radiolabeled fatty acid as substrate. […] At the time of drug addition, acyl-CoA:cholesterol acyltransferase activity was stimulated with 25-hydroxycholesterol plus cholesterol and cells were pulse-labeled for 2 hours with 20 μl sodium [^14C]oleate-albumin complex. Lipids were extracted with hexane/isopropanol (3:2 ratio) and the organic solvents evaporated under a nitrogen stream. Lipids were resuspended in chloroform, spotted on TLC silica gel G plates (Fisher, Fairlawn, N.J.) and separated in hexane/ethyl ether/glacial acetic acid (80:20:1 ratio). Cholesterol ester content was determined by liquid scintillation and normalized as pmol ^14C/mg protein. For cytochemical staining of 3-hydroxysterols, fibroblasts were seeded on poly-lysine coated coverslips, infected with RH T. gondii tachyzoites and incubated with drugs as described. After 3 days, cells were fixed in paraformaldehyde, rinsed in PBS, stained with filipin (Sigma) and examined by fluorescence microscopy using an excitation filter of 350-410 nm. Cholesterol content was determined in densitometric units measured with an Alpha Imager 2000 (Alpha Innotech Corporation, San Leandro, Calif.).

RH strain T. gondii [4] = assay: Stage conversion (tachyzoite to bradyzoite) by flow cytometry, RH strain; type: cell-based, Toxoplasma gondii
Protocol: Bradyzoites highly express p36 (BSR4), and p21 in cell culture, and downregulate the tachyzoite-specific proteins SAG1 and SAG2 (38, 39). […] The drugs were replaced every 5 days. After 15 days, adherent, infected fibroblasts were recovered and freed intracellular organisms were analyzed by flow cytometry (FIG. 6A).
(§2) Tachyzoites were stained with murine monoclonal antibodies specific for tachyzoite protein (SAG-2, provided by Jacqueline Channon, Dartmouth) or bradyzoite-specific antibodies against p21 or p36 (32) followed by fixation with paraformaldehyde. Flow cytometric data were acquired on a FACS Calibur (Becton-Dickinson, Mountain View, Calif.) and analyzed using CellQuest software (Becton-Dickinson) with 5000 or more events evaluated for each condition. Analysis gates were set using appropriate antibody isotype controls, and dead cells were excluded based on light scatter characteristics.

Me49 tachyzoites = assay: Stage conversion (tachyzoite to bradyzoite) by flow cytometry, Me49 strain; type: cell-based, Toxoplasma gondii; conditions: Me49, after 5 days of treatment
Description: as §2

[5] = tested on: T. gondii infected dendritic cells; type: cell-based, human
RH T. gondii = assay: Combination with pyrimethamine: [3H]uracil incorporation in RH infected fibroblasts; type: cell-based, Toxoplasma gondii; conditions: SB203580 1 μM
Protocol: Fibroblasts were infected overnight and then treated with both drugs simultaneously or individually. Incorporated [^3H]methyuracil was measured 48 hours later. Data from one representative experiment is shown.
Pyrimethamine (Sigma) was dissolved in dimethylsulfoxide and added 1 hour after infection alone or in combination with other agents.

T. gondii [6] = assay: T. gondii replication in dendritic cells; type: cell-based, Toxoplasma gondii
T. gondii strain RH = assay: Protection of fibroblast monolayers from T. gondii-mediated destruction
Description: Photomicrographs were taken 5 days after treatment was begun.

RH strain T. gondii [7] = assay: Diamidino-2-phenylindole staining / microscopy of infected fibroblasts: tachyzoite and vacuole morphology; conditions: for tachyzoite morphology (bi-/multinucleated forms): diamidino-2-phenylindole staining
Protocol: Parasitophorous vacuoles and tachyzoite morphology were assessed by diamidino-2-phenylindole staining 24 hours later using an ultraviolet light with excitation at 410-430 nM.
Tachyzoites were released from infected fibroblasts by forced passage through a 27-gauge needle, and used within 2 hours of collection to infect new host cells. Tachyzoites were enumerated with a hemacytometer using Trypan blue dye. To evaluate nuclear morphology, infected cells were stained with diamidino-2phenylindole (Sigma) and examined by light microscopy at 400× magnification. To estimate the intensity of T. gondii infection, cytospin preparations of aliquots of cells in infected cultures were stained with Giemsa stain and examined by light microscopy using a 40× objective. At least 200 cells per condition were counted.

T. gondii [8] = conditions: cited from earlier work
[9] = tested on: extracellular T. gondii tachyzoites; assay: Incubation of extracellular tachyzoites with drug, wash, then [3H]uracil incorporation in fresh fibroblasts; type: cell-based, Toxoplasma gondii; conditions: 10 μM, extracellular tachyzoites incubated 1 hour, washed; at 48 hours
human p38 MAPK = human p38 MAPK (Homo sapiens, UniProt Q16539); conditions: cited from earlier work
[10] = infected MOI 3 for 2 days, then 10 μM, 5 days after treatment was begun
[11] = single dose 10 μM 1 hour after infection, MOI 3, three days after infection
[12] = fibroblasts, [3H]methyluracil incorporation

human p38 MAPK, sequence (Q16539 whole entry): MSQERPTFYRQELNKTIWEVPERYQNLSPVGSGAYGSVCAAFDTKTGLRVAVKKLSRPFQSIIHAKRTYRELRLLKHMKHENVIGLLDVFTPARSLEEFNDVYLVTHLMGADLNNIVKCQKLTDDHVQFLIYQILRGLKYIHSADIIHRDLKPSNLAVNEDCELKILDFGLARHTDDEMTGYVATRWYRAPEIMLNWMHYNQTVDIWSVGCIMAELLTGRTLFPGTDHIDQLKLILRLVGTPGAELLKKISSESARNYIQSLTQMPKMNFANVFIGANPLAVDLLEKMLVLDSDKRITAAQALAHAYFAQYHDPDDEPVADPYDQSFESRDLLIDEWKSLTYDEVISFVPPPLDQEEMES

In the case of `C[S+]([O-])c1ccc(-c2nc(-c3ccc(F)cc3)c(-c3ccncc3)[nH]2)cc1` (centres unmarked) [SB203580, 4(4-fluorophenyl)-2-(4-methylsulfinylphenyl)-5(4-pyridyl)1H-imidazole], the “inhibition of intracellular RH strain tachyzoite replication” value [1] is reported as “significantly inhibited”, the “Me49 strain more susceptible to growth inhibition than RH strain” value [2] is reported as “approximately 12 fold” and the “inhibition of replication of SBRRH2 in fibroblasts” value (mutant tachyzoite SBRRH2; 10 μM) is reported as “no detectable capacity to inhibit”. The “acyl-CoA:cholesterol acyltransferase activity” value [3] was “did not interfere”, the tachyzoite cholesterol content (RH strain tachyzoites) was “only minimally reduced” and the “p36+ organisms (bradyzoite marker)” value (RH strain T. gondii [4]; 10 μM SB203580 or 1 μg pyrimethamine, 15 days) was “significantly higher number”. The “p21+ cells (bradyzoite marker)” value (RH strain T. gondii [4]; SB203580) was “not evident”, the “SAG2+ organisms (tachyzoite marker)” value (RH strain T. gondii [4]; after 15 days of culture with SB203580, 100% at culture outset) was under 15% and the SAG2 expression (Me49 tachyzoites) was “decreased”. The p21 expression (Me49 tachyzoites) was “significantly increased”, the “reversal of T. gondii mediated immunosuppression” value (from here on “reversal”) [5] was “significantly reversed immunosuppression” and the “inhibition of RH T. gondii replication, single agent” value (RH T. gondii) was “effective dose”. For the same compound, the “T. gondii replication in dendritic cells” value (T. gondii [6]) was “does reduce”, the “infected fibroblast monolayers under constant drug” value (T. gondii strain RH; constant 10 μM, four weeks) was “not destroyed” and the “monolayer destroyed (FIG. 6 legend)” value (T. gondii strain RH; [10]) was “approximately 50%”. For the same compound, the “infected fibroblast culture destroyed” value (T. gondii strain RH; [11]) was “approximately 50%”, the “cyst-like structures in infected fibroblasts” value (RH strain T. gondii [7]; after 3 to 5 days) was “developed cyst-like structures” and the “tachyzoite morphology (bi-/multinucleated forms)” value (“tachyzoite morphology” below) (RH strain T. gondii [7]) was “induced formation of tachyzoites with two or more nuclei”.
In the case of `COc1cccc(-c2cc(=O)c3ccccc3o2)c1N` [PD098059], the “effect on intracellular T. gondii replication (Roisin et al.)” value (T. gondii [8]) is given as “slightly reduced”.
For `Oc1ccc(-c2nc(-c3ccc(F)cc3)c(-c3ccncc3)[nH]2)cc1` [SB202190, 4-(4-fluorophenyl)-2(4-hydroxphenyl)-5-(4 pyridyl)1H-imidazole], the IC50 ([1]; [3H]methyluracil incorporation, fibroblasts, estimated by linear interpolation, read-out: IC50 for inhibition of RH strain replication) was about 5 µM, the “inhibition of intracellular RH strain tachyzoite replication” value [1] was “significant inhibition” and the IC50 ([2]; [3H]methyluracil incorporation, fibroblasts, drug added 6 hours after infection, estimated by linear interpolation, read-out: IC50 for inhibition of Me49 strain replication) was about 0.2 µM. The “Me49 strain more susceptible to growth inhibition than RH strain” value [2] was about 25 fold, the “cross-resistance of SB203580-resistant tachyzoites” value (mutant tachyzoite SBRRH2) was “Cross-resistance to SB202190 was observed” and the “reversal” value [5] was “significantly reversed immunosuppression”. For the same compound, the “state of monolayer (FIG. 6 legend)” value (T. gondii strain RH; [10]) was “virtually intact” and the “state of infected fibroblast culture” value (T. gondii strain RH; [11]) was “healthy and confluent”.
For `[O]=[V]([O-])([O-])[O-]` [vanadate], the “state of infected fibroblast culture” value (T. gondii strain RH; [11]) was “essentially destroyed”.
For `CCc1nc(-c2ccc(OC)cc2)[nH]c1-c1ccncc1` [SB202474], the “effect on Me49 tachyzoite replication” value [2, 12] was “no significant effect”, the “reduction of [3H]uracil incorporation” value [9] was under 15% and the “reversal” value [5] was “did not reverse immunosuppression”. For the same compound, the “p38 MAPK inhibitory activity” value (human p38 MAPK) was “without significant p38 MAPK inhibitory effects”, the “p38 MAPK inhibitory activity” value (human p38 MAPK; listed as SB202494) was “no anti-p38 MAPK activity” and the “state of monolayer (FIG. 6 legend)” value (T. gondii strain RH; [10]) was “completely destroyed”. For the same compound, the “state of infected fibroblast culture” value (T. gondii strain RH; [11]) was “essentially destroyed” and the “tachyzoite morphology” value (RH strain T. gondii [7]) was “did not induce binucleated forms”.
In the case of `O=c1c(-c2ccc(O)cc2)coc2cc(O)cc(O)c12` [genistein], the “effect on intracellular T. gondii replication (Roisin et al.)” value (T. gondii [8]) is listed as “no significant effect”.
For `N#CC(=C(/N)Sc1ccccc1N)/C(C#N)=C(\N)Sc1ccccc1N` [U0126], the “inhibition of intracellular RH strain tachyzoite replication” value [1] was “no significant effect”, the “effect on Me49 tachyzoite replication” value [2, 12] was “no significant effect” and the “reversal” value [5] was “did not reverse immunosuppression”. The “tachyzoite morphology” value (RH strain T. gondii [7]) was “did not induce binucleated forms”.
